Values after ≈ are worked out from the molar mass of the structure shown. Like-named read-outs stand apart in the source and are kept apart here.
Tests used:
Experiment in all cases: CLSI broth dilution MIC determination
Type in all cases: cell-based
[1] = test system: P. aeruginosa MP-8 PAO1:mex (mex-oprM-deletion)
P. aeruginosa MP-7 PAO1 = test system: P. aeruginosa MP-7 PAO1
[2] = test system: K. pneumoniae MP-548 clinical
[3] = test system: K. pneumoniae MP-546 Clinical-MDR
K. pneumoniae ATCC 10031 = test system: K. pneumoniae ATCC 10031
[4] = test system: A. baumannii MP-576 Clinical-MDR
[5] = test system: A. baumannii MP-577 Clinical-AZT low
[6] = test system: E. coli MP-9 ATCC25922:tolC
Source text: (§1) MIC data was collected for the novel macrolides that this platform has produced against over 21 unique strains of B. subtilis, E. coli, S. aureus, S. pneumoniae, and H. influenzae, including several multidrug-resistant strains, with a special focus on macrolide resistant mechanisms (vide supra). Azithromycin (Azithro) and Solithromycin (Solithro) were included as a control macrolides in many cases. CLSI standard procedures for broth dilution MIC determination were used. […] These genotypes can be constitutive or inducible.

[7] = test system: S. aureus MP-17 ATCCBAA-977 (BAA 977 iErm); conditions: S. aureus MP-17, ATCCBAA-977, iErm
Source text: as §1

S. aureus ATCC 29213 = S. aureus ATCC 29213 (MP-12)
Source text: as §1

S. aureus MRSA: USA300 = S. aureus MRSA: USA300 (MP-549, msr(a))
Source text: as §1

E. coli MP-541 clinical = test system: E. coli MP-541 clinical
Source text: as §1

[8] = test system: E. coli MP-532 clinical-cErmB
Source text: as §1

[9] = test system: S. aureus (MRSA) MP-513 ST-228 cErm (Clinical-cErm)
Source text: as §1

E. coli ATCC 25922 = test system: E. coli ATCC 25922
Source text: as §1

P. aeruginosa ATCC 27853 = P. aeruginosa ATCC 27853 (MP-3)
A. baumannii ATCC 19606 = A. baumannii ATCC 19606 (MP-15)
[10] = Pseudomonas aeruginosa, read-out: MIC
[11] = Klebsiella pneumoniae, MP548CLINICAL, read-out: MIC
[12] = Klebsiella pneumoniae, read-out: MIC
[13] = Klebsiella pneumoniae, ATCC10031, K. pneumoniae ATCC 10031 (MP-14), read-out: MIC
[14] = Acinetobacter baumannii, read-out: MIC
[15] = Staphylococcus aureus, read-out: MIC
[16] = Staphylococcus aureus, ATCC29213, read-out: MIC
[17] = Escherichia coli, MP541CLINICAL, read-out: MIC
[18] = Escherichia coli, ATCC25922, E. coli ATCC 25922 (MP-4), read-out: MIC
[19] = Pseudomonas aeruginosa, ATCC27853, read-out: MIC
[20] = Acinetobacter baumannii, ATCC19606, read-out: MIC
[21] = P. aeruginosa MP-8, PAO1:mex, mex-oprM-deletion
[22] = K. pneumoniae ATCC 10031 (MP-14)

Row | SMILES | MIC ([1]; Pseudomonas aeruginosa, PAO1) [µg/mL] | MIC (P. aeruginosa MP-7 PAO1; [10]) [µg/mL] | MIC [2, 11] [µg/mL] | MIC [3, 12] [µg/mL] | MIC (K. pneumoniae ATCC 10031; [13]) [µg/mL] | MIC [4, 14] [µg/mL] | MIC [5, 14] [µg/mL] | MIC ([6]; Escherichia coli, ATCC25922) [µg/mL] | MIC [7, 15] [µg/mL] | MIC (S. aureus ATCC 29213; [16]) [µg/mL] | MIC (S. aureus MRSA: USA300; [15]) [µg/mL] | MIC (E. coli MP-541 clinical; [17]) [µg/mL] | MIC ([8]; Escherichia coli) [µg/mL] | MIC [9, 15] [µg/mL] | MIC (E. coli ATCC 25922; [18]) [µg/mL] | MIC (P. aeruginosa ATCC 27853; [19]) [µg/mL] | MIC (A. baumannii ATCC 19606; [20]) [µg/mL] | MIC [1, 21] [µg/mL] | MIC (P. aeruginosa MP-7 PAO1) [µg/mL] | MIC [2] [µg/mL] | other results
1 | CC[C@H]1OC(=O)[C@@](C)(F)C(=O)[C@H](C)[C@@H](O[C@@H]2OC(C)CC(N(C)C)C2O)[C@](C)(OC)C[C@@H](C)C(=O)[C@H](C)[C@H]2N(CC#CCn3cc(-c4ccnc(N)n4)nn3)C(=O)O[C@]12C (some centres unmarked) [FSM-22748] | 16 (≈ 19 µM) | 64 (≈ 75.9 µM) | 64 (≈ 75.9 µM) | > 64 | 8 (≈ 9.49 µM) | > 64 | 32 (≈ 38 µM) | 4 (≈ 4.75 µM) | 0.25 (≈ 0.297 µM) | 0.25 (≈ 0.297 µM) | 0.25 (≈ 0.297 µM) | 16 (≈ 19 µM) | > 64 | > 64 | 16 (≈ 19 µM) | 64 (≈ 75.9 µM) | 16 (≈ 19 µM) |  |  |  | 
2 | CCC1OC(=O)C(C)(F)C(=O)C(C)C(OC2OC(C)CC(N(C)C)C2O)C(C)(OC)CC(C)C(=O)C(C)C2N(CC=C=Cn3cc(-c4nccc(N)n4)nn3)C(=O)OC12C (centres unmarked) [FSM-22738] |  |  |  |  |  |  |  |  |  |  |  |  |  |  |  |  |  | 8 (≈ 9.49 µM) | 64 (≈ 75.9 µM) | 64 (≈ 75.9 µM) | MIC [3]: >64 µg/mL; MIC (K. pneumoniae ATCC 10031; [22]): 4 µg/mL (≈ 4.75 µM); MIC [4]: >64 µg/mL; MIC [5]: 32 µg/mL (≈ 38 µM); MIC ([6]; E. coli MP-9, ATCC25922:tolC): 1 µg/mL (≈ 1.19 µM); MIC [7]: 0.25 µg/mL (≈ 0.297 µM); MIC (S. aureus ATCC 29213): 0.25 µg/mL (≈ 0.297 µM); MIC (S. aureus MRSA: USA300): 0.25 µg/mL (≈ 0.297 µM); MIC (E. coli MP-541 clinical): 16 µg/mL (≈ 19 µM); MIC ([8]; E. coli MP-532, clinical-cErmB): >64 µg/mL; MIC [9]: 32 µg/mL (≈ 38 µM); MIC (E. coli ATCC 25922; E. coli ATCC 25922 (MP-4)): 8 µg/mL (≈ 9.49 µM); MIC (P. aeruginosa ATCC 27853): 64 µg/mL (≈ 75.9 µM); MIC (A. baumannii ATCC 19606): 8 µg/mL (≈ 9.49 µM)
3 | CC[C@H]1OC(=O)[C@@](C)(F)C(=O)[C@H](C)[C@@H](O[C@@H]2OC(C)CC(N(C)C)C2O)[C@](C)(OC)C[C@@H](C)C(=O)[C@H](C)[C@H]2N(CC#CCn3cc(-c4cc(N)nc(N)n4)nn3)C(=O)O[C@]12C (some centres unmarked) [FSM-22742] | 8 (≈ 9.32 µM) | 64 (≈ 74.6 µM) | 64 (≈ 74.6 µM) | > 64 | 4 (≈ 4.66 µM) | > 64 | 32 (≈ 37.3 µM) | 2 (≈ 2.33 µM) | 1 (≈ 1.17 µM) | 0.5 (≈ 0.583 µM) | 1 (≈ 1.17 µM) | 16 (≈ 18.6 µM) | > 64 | > 64 | 16 (≈ 18.6 µM) | 64 (≈ 74.6 µM) | 16 (≈ 18.6 µM) |  |  |  | 
4 | CCC1OC(=O)C(C)(F)C(=O)C(C)C(OC2OC(C)CC(N(C)C)C2O)C(C)(OC)CC(C)C(=O)C(C)C2N(CC=C=Cn3cc(-c4cnccn4)nn3)C(=O)OC12C (centres unmarked) [FSM-22740] |  |  |  |  |  |  |  |  |  |  |  |  |  |  |  |  |  | 16 (≈ 19.3 µM) | >64 | >64 | MIC [3]: >64 µg/mL; MIC (K. pneumoniae ATCC 10031; [22]): 8 µg/mL (≈ 9.66 µM); MIC [4]: >64 µg/mL; MIC [5]: 64 µg/mL (≈ 77.3 µM); MIC ([6]; E. coli MP-9, ATCC25922:tolC): 2 µg/mL (≈ 2.42 µM); MIC [7]: 0.25 µg/mL (≈ 0.302 µM); MIC (S. aureus ATCC 29213): 0.25 µg/mL (≈ 0.302 µM); MIC (S. aureus MRSA: USA300): 0.25 µg/mL (≈ 0.302 µM); MIC (E. coli MP-541 clinical): 16 µg/mL (≈ 19.3 µM); MIC ([8]; E. coli MP-532, clinical-cErmB): >64 µg/mL; MIC [9]: 64 µg/mL (≈ 77.3 µM); MIC (E. coli ATCC 25922; E. coli ATCC 25922 (MP-4)): 16 µg/mL (≈ 19.3 µM); MIC (P. aeruginosa ATCC 27853): >64 µg/mL; MIC (A. baumannii ATCC 19606): 16 µg/mL (≈ 19.3 µM)

Source: patent publication US10633407B2, “14-membered ketolides and methods of their preparation and use” (President and Fellows of Harvard College, priority 2014, dated 2020)
